Experimental data taken from patent US20260083704A1, “LXR MODULATORS WITH BICYCLIC CORE MOIETY FOR TREATING DYSLIPIDEMIAS” (OrsoBio, Inc., priority 2022, published 2026).
Read-outs that look alike come from different tables or passages of the source.

Key:
[1] = system: SREBP1c reporter in HepG2; experiment: HepG2 SREBP1c reporter assay; assay type: cell-based; details: Homo sapiens; HepG2, mean ± SD
Description: The potencies of Compound 21/3 and its analog, Compound pre-6/3, against LXRα and LXRβ were evaluated in biochemical binding assays, cellular mammalian two-hybrid (M2H) interaction assays evaluating nuclear receptor co-repressor (NCOR) recruitment, and cellular reporter assays evaluating transcriptional activity (Table 5).

[2] = system: DIO mice; experiment: Diet-induced obese (DIO) mouse model; assay type: in vivo
Description: (§1) Data are shown as mean±SD. N=5-8 animals per group. *p≤0.05, **p≤0.01, ***p≤0.001, ****p≤0.0001 vs. vehicle, unless otherwise indicated; ^#p≤0.05 pioglitazone vs. vehicle Kruskal-Wallis (non-parametric One-Way ANOVA) test with Dunn's multiple comparisons test (FIG. 4A, FIG. 4B, FIG. 4D), repeated measures two-way ANOVA with Dunnett's multiple comparisons test (FIG. 4C), two-way ANOVA with Sidak's multiple comparisons test (FIG. 4E), Mann-Whitney test (FIG. 4F-G).
(§2) Data are shown as mean±SD. N=5-8 animals per group. *p≤0.05, **p≤0.01, ***p≤0.001, ****p≤0.0001 vs. vehicle, unless otherwise indicated; ^#p≤0.05 pioglitazone vs. vehicle repeated measures two-way ANOVA with Dunnett's multiple comparisons test (FIG. 5A, FIG. 5C, FIG. 5D), Kruskal-Wallis (non-parametric one-way ANOVA) test with Dunn's multiple comparisons test (FIG. 5B, FIG. 5E).
(§3) The efficacy of Compound 21/3 was evaluated in three dysmetabolic rodent models including DIO mice, HFD-fed ZDF rats, and HFD-fed SD rats (FIG. 4 and FIG. 5). Briefly, DIO mice were fed a HFD (60% kcal from fat) for 14 weeks and treated with Compound 21/3 (0.3 and 1 mg/kg once daily by oral gavage) for three weeks, while ZDF and SD rats were fed HFD for two weeks prior to treatment with Compound 21/3 (0.1 and 1 mg/kg once daily by oral gavage) for two or three weeks, respectively.

[3] = system: HFD-fed ZDF rats; experiment: HFD-fed Zucker diabetic fatty (ZDF) rat model; assay type: in vivo
Description: as §1, §2
The efficacy of Compound 21/3 was evaluated in three dysmetabolic rodent models including DIO mice, HFD-fed ZDF rats, and HFD-fed SD rats (FIG. 4 and FIG. 5). Briefly, DIO mice were fed a HFD (60% kcal from fat) for 14 weeks and treated with Compound 21/3 (0.3 and 1 mg/kg once daily by oral gavage) for three weeks, […]

[4] = system: HFD-fed SD rats; experiment: HFD-fed Sprague-Dawley (SD) rat model; assay type: in vivo
Description: as §1, §2, §3

[5] = system: steatotic human liver organoids (sHLO); experiment: Steatotic human liver organoid (sHLO) model; assay type: cell-based; details: 3 days
Description: Data in FIG. 2A are obtained from (Ouchi, Togo et al. 2019). Data are shown as mean±SD. n=4 wells per treatment.
Activity of Compound 21/3 was also evaluated in an induced pluripotent stem cell (iPSC)-derived human liver organoid (HLO) model established from human donors with different genetic backgrounds, including those with known genetic risk variants for NASH (Ouchi, Togo et al. 2019). The HLOs were exposed to high concentrations of lipid to induce a reproducible steatotic NASH phenotype (sHLO) with increased expression of DNL genes, including NR1H3, the gene that encodes LXRα (FIG. 2A) (Ouchi, Togo et al. 2019, Minniti, Pedrelli et al. 2020). […] Mutations in GCKR have been associated with increased circulating lipids, hepatic DNL, and diseases including diabetes and NASH (Fernandes Silva, Vangipurapu et al. 2019).

[6] = Phase 1 study, MAD cohorts: plasma pharmacokinetics; assay type: in vivo, human; details: healthy subjects; for AUC / Cmax / Tmax / half-life: both sexes, human, plasma, oral
Description: A double-blind, placebo-controlled, single- and multiple-ascending dose FIH Phase 1 study to evaluate the safety, tolerability, PK, and PD of Compound 21/3 in healthy adult subjects was performed. A total of up to 150 subjects were enrolled, including 100 subjects in Parts A and B, and up to 50 subjects in adaptive cohorts in Part C. Within each cohort, 10 subjects were randomized, including 8 subjects randomized to Compound 21/3 and 2 subjects to PTM (placebo-to-match). In single-dose cohorts in Parts A and in any Part C cohort evaluating a higher total daily dose than previously evaluated, safety and tolerability data collected through Day 2 from two sentinel subjects, one randomized to Compound 21/3 and one to PTM, were evaluated prior to dosing of the remaining subjects in each cohort.
Intensive PK sampling over 72 h postdose on Day 1 (SAD and MAD) and Day 14 (MAD) was performed. Compound 21/3 plasma concentrations were determined using validated liquid chromatography-tandem mass spectrometry assay. PK parameters were estimated via noncompartmental methods using Pheonix® WinNonlin® 6.2.1 and 8.3.4 (Certara, LP, Princeton, NJ).
Part B evaluated the safety, tolerability, PK, and PD of multiple-ascending doses of oral Compound 21/3 or placebo under fed conditions. Part B will proceed in up to 5 dose-escalation cohorts and will be governed by a review of safety, tolerability, and any available and relevant PK and/or PD data, and study-specific stopping criteria.

[7] = 0.1 and 1 mg/kg once daily oral

In the case of `N#Cc1cccc(C#N)c1-c1c(-c2cccc(-c3ccc(C(=O)NCC(=O)O)cc3Cl)c2)n(S(=O)(=O)c2ccc(C(F)F)cc2)c2ccc(F)cc12` [Compound 21/3], the IC50 [1] is reported as 7 ± 5 nM, the “expression of Hmgcr and Cyp7a1 in the liver and Abca1, Abcg5, Abcg8 in the intestine” value ([2]; DIO mice) is reported as “dose-dependently reduced” and the “expression of cholesterol efflux transporters Abca1 and Abcg1 in the buffy coat” value ([2]; DIO mice) is reported as “did not alter”. For the same compound, the “plasma TG levels” value ([2]; DIO mice) was “reduced”, the “liver expression of DNL genes (Srebp1c, Fasn, Acaca, Scd1)” value (“liver expression of DNL genes” below) ([2]; DIO mice, 0.3 and 1 mg/kg once daily oral, three weeks) was “dose-dependently reduced” and the “maximal reduction of liver TG versus vehicle” value (shortened to “maximal reduction”) ([2]; DIO mice, p≤0.001) was 65%. The “reduction of plasma total cholesterol (TC) at end of treatment compared with vehicle” value ([2]; DIO mice, p≤0.05) was 49%, the “intestinal Srebp1c expression” value ([2]; DIO mouse, ileum) was “dose-dependently reduced” and the “liver TC” value ([2]; dysmetabolic rodent models (FIG. 5B), particularly higher dose groups) was “statistically significant increase”. The “liver biochemistry tests, plasma ALT or AST, compared with vehicle” value ([2]; dysmetabolic rodent models (FIG. 5C-D)) was “not associated with substantial elevations”, the “hepatic expression and plasma levels of ANGPTL3” value ([3]; 15 mg/kg once daily oral) was “reduced” and the “immunostaining of pancreatic sections for insulin relative to vehicle” value ([3]; 15 mg/kg once daily oral, 5 weeks) was “more prominent staining for insulin”. For the same compound, the “glucose tolerance (oral glucose tolerance test)” value ([3]; 15 mg/kg once daily oral, after 4 weeks of dosing) was “significantly improved”, the “liver expression of DNL genes” value [3, 7] was “dose-dependently reduced” and the “reduction of plasma TG compared with vehicle” value ([3]; highest dose 1 mg/kg, p≤0.05) was 96%. The “maximal reduction” value ([3]; p≤0.01) was 49%, the “reduction of plasma total cholesterol (TC) at end of treatment compared with vehicle” value ([3]; p≤0.05) was 67% and the “liver expression of DNL genes” value [4, 7] was “dose-dependently reduced”. For the same compound, the “reduction of plasma TG compared with vehicle” value ([4]; highest dose 1 mg/kg, p≤0.05) was 59%, the “maximal reduction” value ([4]; p=0.07) was 42% and the intracellular lipid content ([5]; patient-derived sHLOs) was “dose-dependently reduced”. For the same compound, the “expression of DNL-associated genes” value ([5]; sHLOs from GCKR wild-type (CC) or mutant (TT) carriers) was “suppressed”, the AUC ([6]; 2 mg, MAD Day 14, 2 mg, fed, mean) was 2.7 ng·h/mL and the Cmax ([6]; 2 mg, MAD Day 14, 2 mg, fed, mean, read-out: Cmax) was 0.95 ng/mL. For the same compound, the Tmax ([6]; 2 mg, MAD Day 14, 2 mg, fed, median) was 4 h, the half-life ([6]; 2 mg, MAD Day 14, 2 mg, fed, median, read-out: t1/2 (converted)) was 1.43 h and the AUC ([6]; 6 mg, MAD Day 14, 6 mg (fasted), mean) was 19 ng·h/mL. The Cmax ([6]; 6 mg, MAD Day 14, 6 mg (fasted), mean, read-out: Cmax) was 6.37 ng/mL, the Tmax ([6]; 6 mg, MAD Day 14, 6 mg (fasted), median) was 2 h and the half-life ([6]; 6 mg, MAD Day 14, 6 mg (fasted), median, read-out: t1/2 (converted)) was 1.46 h. It also gave an AUC ([6]; 6 mg, MAD Day 14, 6 mg, fed, mean) of 6.05 ng·h/mL, a Cmax ([6]; 6 mg, MAD Day 14, 6 mg, fed, mean, read-out: Cmax) of 2.16 ng/mL and a Tmax ([6]; 6 mg, MAD Day 14, 6 mg, fed, median) of 3.5 h. It also gave a half-life ([6]; 6 mg, MAD Day 14, 6 mg, fed, median, read-out: t1/2 (converted)) of 1.51 h, an AUC ([6]; 12 mg, MAD Day 14, 12 mg, fed, mean) of 14.6 ng·h/mL and a Cmax ([6]; 12 mg, MAD Day 14, 12 mg, fed, mean, read-out: Cmax) of 4.85 ng/mL. The Tmax ([6]; 12 mg, MAD Day 14, 12 mg, fed, median) was 3.5 h, the half-life ([6]; 12 mg, MAD Day 14, 12 mg, fed, median, read-out: t1/2 (converted)) was 1.74 h and the half-life ([6]; MAD, read-out: steady-state t1/2) was 1.4 to 2.6 h. The Tmax ([6]; Phase 1 summary (SAD and MAD)) was 2 to 4 h, the Cmax ([6]; Phase 1 summary (SAD and MAD), read-out: maximal plasma concentrations (Cmax)) was < 7 ng/mL and the “steady-state t1/2” value ([6]; MAD) was 1.5 to 2.5 h. For the same compound, the “AUC and Cmax lower on Day 14 vs Day 1” value ([6]; MAD, fed dosing) was 25-50% and the “dose proportionality of AUC and Cmax” value ([6]; MAD, fed dosing) was “increased less than dose proportionally”.
For `N#Cc1cccc(C#N)c1-c1c(-c2cccc(-c3ccc(C(=O)O)cc3Cl)c2)n(S(=O)(=O)c2ccc(C(F)F)cc2)c2ccc(F)cc12` [pre-6/3], the IC50 [1] was 0.2 ± 0.1 nM and the “hepatic expression of Angptl3, Angptl4, Angptl8, ApoC1, ApoC2, ApoC3” value ([3]; 5 mg/kg once daily oral) was “suppressed”.
